Results taken from patent US20040132803A1, “Agent for the treatment of overactive bladder” (priority 2003, published 2004).

Columns and labels:
[1] = system: rats with hypertrophic bladder; experiment: Inhibition of detrusor instability, cystometry in rats with partial urethra obstruction (hypertrophic bladder); assay type: in vivo, rat; conditions: for micturition contraction, relative to before administration = 100 / pre-micturition contraction, relative to before administration = 100: rats with partial urethra obstruction
Text: Partial urethra obstruction was induced in rats.

dd male mice = conditions: mouse, in vivo, po, 7 days
Procedure: The test compound was administered orally or intraperitoneally to 3 animals per group of dd male mice (body weight, 20±1 g). Minimum lethal dose (MLD) value was obtained by observing mortality on the 7th day after the administration.

DRG cells = experiment: Current-clamp membrane potential in DRG cells; assay type: cell-based, rat; conditions: for Membrane potential (mV): current clamp
Procedure: Experiments were performed on adult female Sprague Dawley rats. A population of unidentified DRG cells and a population of DRG neurons that innervate the urinary bladder were labeled by retrograde axonal transport of the fluorescent dye, Fast Blue (4% w/v) (Polyloy, Gross Umstadt, Germany), injected into the wall of the bladder in halothane-anesthetized animals 7 days before the dissociation. The dye was injected with a 28 gauge needle at three to six sites on the dorsal surface of the organ (5-6 μL per site, total volume of 20-30 μL). Each injection site was washed with saline to minimize contamination of adjacent organs with the dye.
Freshly dissociated neurons from DRG were prepared from halothane-anesthetized animals. L6 and S1 DRG were dissected from animals and then dissociated in a shaking bath for 25 minutes at 35° C. with 5 mL DMEM (Sigma) containing 0.3 mg/mL trypsin (Type 3, Sigma), 1 mg/mL collagenase (Type 1, Sigma), and 0.1 mg/mL deoxyribonuclease (Type 4, Sigma). Trypsin inhibitor (Type 2a, Sigma) was then added thereto to neutralize the activity of trypsin. Individual DRG cell bodies were isolated by trituration and then plated on a poly-L-lysine-coated 35 mm Petri dishes.
Dye-labeled primary afferent neurons that innervate the urinary bladder were identified using an inverted phase-contrast microscope (Nikon, Tokyo, Japan) with fluorescent attachments (UV-1A filter; excitation wavelength, 365 nm). Gigaohm-seal whole-cell recordings were performed within 6-8 hours after cell dissociation at room temperature (20-22° C.) on each labeled neuron in a culture dish that usually contained three to seven labeled cells among a few hundred unlabeled neurons. The internal solution contained (in mmol/L): KCl 140, CaCl2 1, MgCl2 2, EGTA 11, HEPES 10, Mg-ATP 2, and Tris-GTP 0.4 adjusted to pH 7.4 with KOH. Patch electrodes had resistances of 1-4 M Ω when filled with the internal solution. Neurons were superfused at a flow rate of 1.5 mL/minutes with an external solution containing (in mmol/L): NaCl 150, KCl 5, CaCl2 2.5, MgCl2 1, HEPES 10, and D-glucose 10, adjusted to pH 7.4 with NaOH. All recordings were made with an Axopatch-1D patch-clamp amplifier (Axon Instruments, Foster City, Calif.), and data were acquired and analyzed by PCLAMP software (Axon Instruments).
In current-clamp recordings, membrane potential of DRG cells were measured before and after compound applications. The membrane potentials were normalized to control (before addition of the compound).

[2] = 0.001 mg/kg p.o., after 3 hours
[3] = 0.001 mg/kg p.o., after 5 hours

C[C@](O)(C(=O)Nc1cccc2c1C(=O)c1sccc1CS2(=O)=O)C(F)(F)F [Compound 1, (S)-(+)-N-(5,5-dioxido-10-oxo-4,10-dihydrothieno[3,2-c][l]benzothiepin-9-yl)-3,3,3-trifluoro-2-hydroxy-2-methylpropanamide]
micturition contraction, relative to before administration = 100 ([1]; 0.001 mg/kg p.o., after 1 hour): 99.3 ± 2.3%
pre-micturition contraction, relative to before administration = 100 ([1]; 0.001 mg/kg p.o., after 1 hour): 105.9 ± 7.8%
micturition contraction, relative to before administration = 100 [1, 2]: 101.5 ± 3.3%
pre-micturition contraction, relative to before administration = 100 [1, 2]: 100.3 ± 10.0%
micturition contraction, relative to before administration = 100 [1, 3]: 98.7 ± 5.2%
pre-micturition contraction, relative to before administration = 100 [1, 3]: 104.2 ± 10.2%
micturition contraction, relative to before administration = 100 ([1]; 0.01 mg/kg p.o., after 1 hour): 99.6 ± 1.2%
pre-micturition contraction, relative to before administration = 100 ([1]; 0.01 mg/kg p.o., after 1 hour): 59.5 ± 4.1 %
micturition contraction, relative to before administration = 100 ([1]; 0.01 mg/kg p.o., after 3 hours): 92.6 ± 3.2%
pre-micturition contraction, relative to before administration = 100 ([1]; 0.01 mg/kg p.o., after 3 hours): 69.5 ± 4.4 %
micturition contraction, relative to before administration = 100 ([1]; 0.01 mg/kg p.o., after 5 hours): 90.1 ± 4.3%
pre-micturition contraction, relative to before administration = 100 ([1]; 0.01 mg/kg p.o., after 5 hours): 67.8 ± 5.5 %
micturition contraction, relative to before administration = 100 ([1]; 0.1 mg/kg p.o., after 1 hour): 106.2 ± 9.2%
pre-micturition contraction, relative to before administration = 100 ([1]; 0.1 mg/kg p.o., after 1 hour): 55.8 ± 8.2 %
micturition contraction, relative to before administration = 100 ([1]; 0.1 mg/kg p.o., after 3 hours): 105.2 ± 9.6%
pre-micturition contraction, relative to before administration = 100 ([1]; 0.1 mg/kg p.o., after 3 hours): 66.2 ± 4.7 %
micturition contraction, relative to before administration = 100 ([1]; 0.1 mg/kg p.o., after 5 hours): 100.1 ± 8.6%
pre-micturition contraction, relative to before administration = 100 ([1]; 0.1 mg/kg p.o., after 5 hours): 69.2 ± 7.4 %
effect on micturition contraction ([1]; rats with hypertrophic bladder): had no influence
effect on pre-micturition contraction (detrusor instability) ([1]; rats with hypertrophic bladder): inhibited
Minimum lethal dose (MLD) (dd male mice): > 1,000 mg/kg
effect on membrane potential (DRG cells): hyperpolarization
Membrane potential (mV) (DRG cells; 1.0 × 10^−6 mol/L): −53.67 ± 0.74 mV
Membrane potential (mV) (DRG cells; 1.0 × 10^−7 mol/L): −57.17 ± 0.53 mV
Membrane potential (mV) (DRG cells; 1.0 × 10^−8 mol/L): −49.80 ± 0.65 mV
Membrane potential (mV) (DRG cells; 1.0 × 10^−9 mol/L): −48.10 ± 0.48 mV
Membrane potential (mV) (DRG cells; 5.0 × 10^−4 mol/L): −42.67 ± 1.46 mV
Membrane potential (mV) (DRG cells; 5.0 × 10^−5 mol/L): −48.50 ± 1.28 mV
Membrane potential (mV) (DRG cells; 5.0 × 10^−6 mol/L): −50.50 ± 0.88 mV
